Converted amounts (≈) assume the structure as drawn.

In general, MIC refers to the least concentration at which growth counts as inhibited. A word on the MBC: it is the lowest tested concentration that kills the bacteria rather than only halting them.

The test system of one test is Talaromyces funiculosus. In words: Antifungal activity against Penicillium funiculosum ATCC 36839 assessed as growth inhibition after 72 hrs at 28 degC by serial dilution method. The class given is functional. The conditions noted are these: for MIC: Talaromyces funiculosus, ATCC 36839, 72 h.
In a further test the test system is Penicillium ochrochloron. In words: Antifungal activity against Penicillium ochrochloron ATCC 9112 assessed as growth inhibition after 72 hrs at 28 degC by serial dilution method. The class given is functional. The conditions noted are these: for MIC: Penicillium ochrochloron, ATCC 9112, 72 h.
Another test deals with Candida albicans. In words: Antifungal activity against Candida albicans ATCC 10231 assessed as growth inhibition after 72 hrs at 28 degC by serial dilution method. The class given is functional. The conditions noted are these: for MIC: Candida albicans, ATCC 10231, 72 h.
The subject of a further test is Aspergillus niger. In words: Antifungal activity against Aspergillus niger ATCC 6275 assessed as growth inhibition after 72 hrs at 28 degC by serial dilution method. The class given is functional. The conditions noted are these: for MIC: Aspergillus niger, ATCC 6275, 72 h.
For a further test, the system named is Aspergillus ochraceus. In words: Antifungal activity against Aspergillus ochraceus ATCC 12066 assessed as growth inhibition after 72 hrs at 28 degC by serial dilution method. The class given is functional. The conditions noted are these: for MIC: Aspergillus ochraceus, ATCC 12066, 72 h.
A further test has as its system Aspergillus versicolor. In words: Antifungal activity against Aspergillus versicolor ATCC 11730 assessed as growth inhibition after 72 hrs at 28 degC by serial dilution method. The class given is functional. The conditions noted are these: for MIC: Aspergillus versicolor, ATCC 11730, 72 h.
In another test the test system is Trichoderma viride. In words: Antifungal activity against Trichoderma viride IAM 5061 assessed as growth inhibition after 72 hrs at 28 degC by serial dilution method. The class given is functional. The conditions noted are these: for MIC: Trichoderma viride, IAM 5061, 72 h.
Another test concerns Aspergillus fumigatus. In words: Antifungal activity against Aspergillus fumigatus ATCC 1022 assessed as growth inhibition after 72 hrs at 28 degC by serial dilution method. The class given is functional. The conditions noted are these: for MIC: Aspergillus fumigatus, ATCC 1022, 72 h.
Another test concerns Bacillus cereus. In words: Antibacterial activity against clinical isolates of Bacillus cereus assessed as growth inhibition after 24 hrs at 37 degC by iodonitrotetrazolium chloride staining based microdilution broth assay. The class given is functional.
For another test, the system named is Listeria monocytogenes. In words: Antibacterial activity against Listeria monocytogenes NCTC 7973 assessed as growth inhibition after 24 hrs at 37 degC by iodonitrotetrazolium chloride staining based microdilution broth assay. The class given is functional. Particulars: NCTC 7973, 24 h. For orientation: In broth dilution the organism is exposed to a series of concentrations in liquid medium.

Another test has as its system Escherichia coli. In words: Antibacterial activity against Escherichia coli ATCC 35210 assessed as growth inhibition after 24 hrs at 37 degC by iodonitrotetrazolium chloride staining based microdilution broth assay. The class given is functional. Particulars: ATCC 35210, 24 h.
For a further test, the system named is Staphylococcus aureus. In words: Antibacterial activity against Staphylococcus aureus ATCC 6538 assessed as growth inhibition after 24 hrs at 37 degC by iodonitrotetrazolium chloride staining based microdilution broth assay. The conditions noted are these: ATCC 6538, 24 h. The class given is functional.
The test system of the next test is Enterobacter cloacae. In words: Antibacterial activity against human isolate of Enterobacter cloacae assessed as growth inhibition after 24 hrs at 37 degC by iodonitrotetrazolium chloride staining based microdilution broth assay. The class given is functional.
The next test concerns Pseudomonas aeruginosa. In words: Antibacterial activity against Pseudomonas aeruginosa ATCC 27853 assessed as growth inhibition after 24 hrs at 37 degC by iodonitrotetrazolium chloride staining based microdilution broth assay. The class given is functional. The conditions noted are these: ATCC 27853, 24 h.
The next test relates to Micrococcus flavus. In words: Antibacterial activity against Micrococcus flavus ATCC 10240 assessed as growth inhibition after 24 hrs at 37 degC by iodonitrotetrazolium chloride staining based microdilution broth assay. Particulars: ATCC 10240, 24 h. The class given is functional.
The subject of the next test is Salmonella typhimurium. In words: Antibacterial activity against Salmonella typhimurium ATCC 13311 assessed as growth inhibition after 24 hrs at 37 degC by iodonitrotetrazolium chloride staining based microdilution broth assay. The class given is functional, Salmonella enterica subsp. enterica serovar Typhimurium. Particulars: Salmonella enterica, ATCC 13311, 24 h.

For test [1], the target named is Human immunodeficiency virus type 1 reverse transcriptase (Human immunodeficiency virus 1) (UniProt Q72547). In words: Inhibition of HIV1 reverse transcriptase assessed as residual enzyme activity by measuring reduction in [3H]dTTP incorporation into poly(rA)-oligo(dT) at 4 uM incubated for 15 mins by scintillation counting method relative to control.

Regarding `CC(=O)N1CCN(c2ccc(OCC3COC(Cn4ccnc4)(c4ccc(Cl)cc4Cl)O3)cc2)CC1` (stereo not given) [KETOCONAZOLE], the MFC99.5 with Talaromyces funiculosus stood at 95 ×10⁻² umol/ml; in the test with Penicillium ochrochloron it was 380 ×10⁻² umol/ml; with Candida albicans it was 95 ×10⁻² umol/ml; in the test on Aspergillus niger, 95 ×10⁻² umol/ml; in the test on Aspergillus ochraceus, 95 ×10⁻² umol/ml; in the test on Aspergillus versicolor it was 95 ×10⁻² umol/ml. Also, the MFC99.5 was 570 ×10⁻² umol/ml with Trichoderma viride and 95 ×10⁻² umol/ml in the test with Aspergillus fumigatus. The MIC amounted to 380 µM (≈ 202 µg/mL) with Talaromyces funiculosus; 3800 µM (≈ 2020 µg/mL) in the test on Penicillium ochrochloron; 380 µM (≈ 202 µg/mL) with Candida albicans; 380 µM (≈ 202 µg/mL) with Aspergillus niger; 380 µM (≈ 202 µg/mL) with Aspergillus ochraceus; 380 µM (≈ 202 µg/mL) in the test with Aspergillus versicolor. Also, the results for the MIC in the test on Trichoderma viride and with Aspergillus fumigatus were 4750 µM (≈ 2520 µg/mL) and 380 µM (≈ 202 µg/mL), respectively.
As to `CN[C@@H]1[C@H](O[C@H]2[C@H](O[C@H]3[C@H](O)[C@@H](O)[C@H](N=C(N)N)[C@@H](O)[C@@H]3N=C(N)N)O[C@@H](C)[C@]2(O)C=O)O[C@@H](CO)[C@H](O)[C@H]1O` [STREPTOMYCIN], the MBC was found to be 86 µM (≈ 50 µg/mL) in the test with Bacillus cereus; 516 µM (≈ 300 µg/mL) in the test on Listeria monocytogenes; 344 µM (≈ 200 µg/mL) in the test on Escherichia coli; 344 µM (≈ 200 µg/mL) in the test with Staphylococcus aureus; 86 µM (≈ 50 µg/mL) in the test on Enterobacter cloacae; 344 µM (≈ 200 µg/mL) with Pseudomonas aeruginosa. Also, the figures for the MBC in the test with Micrococcus flavus and in the test with Salmonella typhimurium were 172 µM (≈ 100 µg/mL) and 344 µM (≈ 200 µg/mL), respectively. For the same compound, the minimum inhibitory concentration (MIC) amounted to 43 µM (≈ 25 µg/mL) in the test with Bacillus cereus; 258 µM (≈ 150 µg/mL) with Listeria monocytogenes; 172 µM (≈ 100 µg/mL) in the test with Escherichia coli; 172 µM (≈ 100 µg/mL) with Staphylococcus aureus; 43 µM (≈ 25 µg/mL) in the test with Enterobacter cloacae; 272 µM (≈ 158 µg/mL) with Pseudomonas aeruginosa. Moreover, the MIC is 86 µM (≈ 50 µg/mL) in the test with Micrococcus flavus and 172 µM (≈ 100 µg/mL) in the test on Salmonella typhimurium.
As for `O=C1CSC(c2cccc(Cl)c2)N1c1nc(C23CC4CC(CC(C4)C2)C3)cs1` (stereo not given), the MBC in the test with Bacillus cereus is 62.5 µM (≈ 26.9 µg/mL); with Listeria monocytogenes, 125 µM (≈ 53.9 µg/mL); in the test on Escherichia coli, 125 µM (≈ 53.9 µg/mL); with Staphylococcus aureus, 62.5 µM (≈ 26.9 µg/mL); with Enterobacter cloacae, 125 µM (≈ 53.9 µg/mL); in the test with Pseudomonas aeruginosa, 125 µM (≈ 53.9 µg/mL). For the same compound, the figures for the MBC in the test with Micrococcus flavus and with Salmonella typhimurium were 125 µM (≈ 53.9 µg/mL) and 62.5 µM (≈ 26.9 µg/mL), respectively. The MIC with Bacillus cereus came out at 16.2 µM (≈ 7 µg/mL); in the test with Talaromyces funiculosus it was 2.9 µM (≈ 1.25 µg/mL); in the test on Listeria monocytogenes it was 62.5 µM (≈ 26.9 µg/mL); with Escherichia coli it was 62.5 µM (≈ 26.9 µg/mL); in the test with Staphylococcus aureus, 30.6 µM (≈ 13.2 µg/mL); with Enterobacter cloacae, 62.5 µM (≈ 26.9 µg/mL). The MIC stood at 62.5 µM (≈ 26.9 µg/mL) in the test with Pseudomonas aeruginosa; 2.9 µM (≈ 1.25 µg/mL) with Penicillium ochrochloron; 5.8 µM (≈ 2.5 µg/mL) in the test with Candida albicans; 0.3 µM (≈ 0.129 µg/mL) in the test with Aspergillus niger; 62.5 µM (≈ 26.9 µg/mL) in the test on Micrococcus flavus; 0.45 µM (≈ 0.194 µg/mL) in the test on Aspergillus ochraceus. The minimum inhibitory concentration (MIC) was 0.3 µM (≈ 0.129 µg/mL) in the test with Aspergillus versicolor, 0.3 µM (≈ 0.129 µg/mL) in the test on Trichoderma viride, 30.6 µM (≈ 13.2 µg/mL) with Salmonella typhimurium and 2.9 µM (≈ 1.25 µg/mL) in the test with Aspergillus fumigatus. In addition, the MFC99.5 is recorded as 0.58 ×10⁻² umol/ml in the test on Talaromyces funiculosus; 0.58 ×10⁻² umol/ml in the test with Penicillium ochrochloron; 1.16 ×10⁻² umol/ml in the test on Candida albicans; 0.07 ×10⁻² umol/ml in the test with Aspergillus niger; 0.07 ×10⁻² umol/ml in the test with Aspergillus ochraceus; 0.07 ×10⁻² umol/ml with Aspergillus versicolor. For the same compound, the MFC99.5 in the test on Trichoderma viride amounted to 0.045 ×10⁻² umol/ml; with Aspergillus fumigatus, 0.58 ×10⁻² umol/ml. For the same compound, the Activity in test [1] was found to be 99.3%.

These data come from ChEMBL document CHEMBL3734713, “4-Thiazolidinone derivatives as potent antimicrobial agents: microwave-assisted synthesis, biological evaluation and docking studies” (2015).
